Literature values, collected in patent US20120074308A1, “IMMUNOSUPPRESSANT MONITORING BY MALDI MASS SPECTROMETRY” (priority 2010, published 2012).

Settings: for therapeutic window: immunosuppressants currently used for transplant patients, level in blood; for narrow therapeutic range: levels in whole blood

| Compound | therapeutic window | narrow therapeutic range | increased levels associated with high toxicity (thrombocytopenia, hyperlipidemia, high serum creatinine levels) (blood level) |
| --- | --- | --- | --- |
| CO[C@H]1C[C@@H]2CC[C@@H](C)[C@@](O)(O2)C(=O)C(=O)N2CCCC[C@H]2C(=O)O[C@H]([C@H](C)C[C@@H]2CC[C@@H](OCCO)[C@H](OC)C2)CC(=O)[C@H](C)/C=C(\C)[C@@H](O)[C@@H](OC)C(=O)[C@H](C)C[C@H](C)/C=C/C=C/C=C/1C [Everolimus] | 3 to 8 ng/mL | 3 to 8 ng/mL | – |
| CO[C@H]1C[C@@H]2CC[C@@H](C)[C@@](O)(O2)C(=O)C(=O)N2CCCC[C@H]2C(=O)O[C@H]([C@H](C)C[C@@H]2CC[C@@H](O)[C@H](OC)C2)CC(=O)[C@H](C)/C=C(\C)[C@@H](O)[C@@H](OC)C(=O)[C@H](C)C[C@H](C)/C=C/C=C/C=C/1C [Sirolimus] | 4 to 12 ng/mL | 4 to 12 ng/mL | above 15 nanogram per milliliter |
| C=CC[C@@H]1/C=C(\C)C[C@H](C)C[C@H](OC)[C@H]2O[C@@](O)(C(=O)C(=O)N3CCCC[C@H]3C(=O)O[C@H](/C(C)=C/[C@@H]3CC[C@@H](O)[C@H](OC)C3)[C@H](C)[C@@H](O)CC1=O)[C@H](C)C[C@@H]2OC [Tacrolimus] | 4 to 20 ng/mL | 4 to 20 ng/mL | – |
